Measured values: PubChem BioAssay AID720602 (Broad Institute, 2013)

Tested on: LOX IMVI viability, ATP luminescence, 8/24/48 h
Assay: LOX IMVI melanoma cell viability loss, dose response, HRAS target identification, CellTiter-Glo ATP luminescence, 8/24/48 h, dry powder (AID 720602)

Compound | AC50 (measured here: AC50 at 8 h) [µM] | AC50 (measured here: AC50 at 24 h) [µM] | AC50 (measured here: AC50 at 48 h) [µM]
COc1ccc(N(C(=O)CCl)C(C(=O)NCCc2ccccc2)c2cccs2)cc1Cl (stereo not given) | 0.021 | 0.0259 | 0.122
COC(=O)c1ccc([C@@H]2c3[nH]c4ccccc4c3C[C@@H](C(=O)OC)N2C(=O)CCl)cc1 | 0.0157 | 0.0101 | 0.187
Cc1onc(C(=O)N2CCN(C(c3ccc(Cl)cc3)c3ccc(Cl)cc3)CC2)c1[N+](=O)[O-] | 0.06 | 0.0366 | 0.499
CC(C)(C)OC(=O)NCCOCCOCCOc1ccc(N(C(=O)CCl)C(C(=O)NCCc2ccccc2)c2cccs2)cc1Cl (stereo not given) | 0.0435 | 0.0342 | 0.39
C#CCCCC(=O)NCCOCCOCCOc1ccc(N(C(=O)CCl)C(C(=O)NCCc2ccccc2)c2cccs2)cc1Cl (stereo not given) | 0.193 | 0.146 | 2.64
